The text below walks through data of ChEMBL document CHEMBL1146152, “5-(1H-Benzimidazol-1-yl)-3-alkoxy-2-thiophenecarbonitriles as potent, selective, inhibitors of IKK-epsilon kinase” (Bioorg Med Chem Lett, 2006).

Series [1] concerns the target Serine/threonine-protein kinase PLK1 (Homo sapiens, UniProt P53350). Nature of the series: Inhibition of PLK1.
Series [2] concerns the target T1, Inhibitor of nuclear factor kappa-B kinase subunit epsilon (Homo sapiens, UniProt Q14164).
T1 sequence (Q14164 whole entry): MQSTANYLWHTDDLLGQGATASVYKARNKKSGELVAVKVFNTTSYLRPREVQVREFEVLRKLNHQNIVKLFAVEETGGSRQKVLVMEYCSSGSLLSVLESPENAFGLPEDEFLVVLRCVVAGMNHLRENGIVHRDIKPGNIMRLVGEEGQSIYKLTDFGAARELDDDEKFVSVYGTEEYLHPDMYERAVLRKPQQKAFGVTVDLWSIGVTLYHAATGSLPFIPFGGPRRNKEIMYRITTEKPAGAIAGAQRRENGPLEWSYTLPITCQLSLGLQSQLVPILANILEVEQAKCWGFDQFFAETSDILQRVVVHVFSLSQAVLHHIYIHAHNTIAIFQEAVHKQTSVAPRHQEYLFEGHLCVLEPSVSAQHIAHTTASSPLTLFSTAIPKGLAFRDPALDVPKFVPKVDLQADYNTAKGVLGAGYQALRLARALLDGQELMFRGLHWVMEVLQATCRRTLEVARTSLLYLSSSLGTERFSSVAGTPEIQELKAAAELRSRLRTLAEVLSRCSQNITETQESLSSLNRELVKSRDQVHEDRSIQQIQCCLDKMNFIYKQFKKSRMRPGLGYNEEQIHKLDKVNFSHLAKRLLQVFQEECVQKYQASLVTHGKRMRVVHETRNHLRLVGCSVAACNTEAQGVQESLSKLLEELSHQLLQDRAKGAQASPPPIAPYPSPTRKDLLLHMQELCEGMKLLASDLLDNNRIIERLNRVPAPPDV
Kind of series: Inhibition of human recombinant IKKepsilon by TR-FRET assay. A general note: In TR-FRET formats the signal depends on donor and acceptor labels being close together.

The target of another series is T2, Cytochrome P450 1A2 (Homo sapiens, UniProt P05177).
T2 sequence (P05177 whole entry): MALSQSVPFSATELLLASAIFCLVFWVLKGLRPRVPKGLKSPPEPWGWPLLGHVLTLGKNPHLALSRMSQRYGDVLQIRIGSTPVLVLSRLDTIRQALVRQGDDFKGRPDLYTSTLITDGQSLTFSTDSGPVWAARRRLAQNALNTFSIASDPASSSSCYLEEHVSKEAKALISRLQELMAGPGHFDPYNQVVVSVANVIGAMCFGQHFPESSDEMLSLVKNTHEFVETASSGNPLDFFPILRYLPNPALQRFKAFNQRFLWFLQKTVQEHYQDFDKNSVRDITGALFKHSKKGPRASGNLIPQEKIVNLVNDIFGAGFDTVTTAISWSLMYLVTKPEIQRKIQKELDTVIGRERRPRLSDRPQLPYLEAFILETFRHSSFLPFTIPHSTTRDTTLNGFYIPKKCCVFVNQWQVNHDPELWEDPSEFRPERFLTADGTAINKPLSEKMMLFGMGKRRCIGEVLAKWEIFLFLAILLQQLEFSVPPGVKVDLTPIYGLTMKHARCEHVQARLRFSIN
Nature of the series: Inhibition of CYP1A2. It is filed as ADME.

The target of the next series is Cytochrome P450 2D6 (Homo sapiens, UniProt P10635). Nature of the series: Inhibition of CYP2D6. The series is classed as ADME.
In another series the target is Cytochrome P450 3A4 (Homo sapiens, UniProt P08684). Kind of series: Inhibition of CYP3A4. The series is classed as ADME.
The target of series [3] is Mitogen-activated protein kinase 14 (Homo sapiens, UniProt Q16539). Nature of the series: Inhibition of p38alpha.
Series [4] deals with Glycogen synthase kinase-3 (Homo sapiens, UniProt P49840+P49841). Kind of series: Inhibition of GSK3. The series is classed as protein assay.
Series [5] in a line: Aqueous solubility of the compound. It is filed as physicochemical. The settings on record: buffer.
The target of series [6] is Mitogen-activated protein kinase 10 (Homo sapiens, UniProt P53779). Kind of series: Inhibition of JNK3.
A further series has as its target T3, TGF-beta receptor type-1 (Homo sapiens, UniProt P36897).
T3 sequence (P36897 whole entry): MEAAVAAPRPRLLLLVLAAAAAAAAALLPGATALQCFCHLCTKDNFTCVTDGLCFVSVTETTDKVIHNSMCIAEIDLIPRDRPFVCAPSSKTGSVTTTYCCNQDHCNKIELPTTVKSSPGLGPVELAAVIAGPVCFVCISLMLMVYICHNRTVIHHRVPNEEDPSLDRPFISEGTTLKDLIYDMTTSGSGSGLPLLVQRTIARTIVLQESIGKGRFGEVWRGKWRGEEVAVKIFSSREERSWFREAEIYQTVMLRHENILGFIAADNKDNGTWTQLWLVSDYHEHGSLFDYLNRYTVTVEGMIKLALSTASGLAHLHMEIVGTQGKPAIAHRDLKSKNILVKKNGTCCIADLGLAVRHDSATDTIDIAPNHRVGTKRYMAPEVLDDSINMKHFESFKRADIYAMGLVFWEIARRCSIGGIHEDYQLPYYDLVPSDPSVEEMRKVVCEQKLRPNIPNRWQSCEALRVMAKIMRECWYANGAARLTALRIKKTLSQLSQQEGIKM
Kind of series: Inhibition of Alk5.

The target in series [7] is Epidermal growth factor receptor (Homo sapiens, UniProt P00533). Kind of series: Inhibition of EGFR.
The target in series [8] is Receptor tyrosine-protein kinase erbB-2 (Homo sapiens, UniProt P04626). Nature of the series: Inhibition of ErB2.
The next series concerns the target Cytochrome P450 2C9 (Homo sapiens, UniProt P11712). Nature of the series: Inhibition of CYP2C9. It is filed as ADME.
For series [9], the target named is Mitogen-activated protein kinase 11 (Homo sapiens, UniProt Q15759). Nature of the series: Inhibition of p38beta.

One may read the IC50 as the point on the concentration scale where inhibition reaches its midpoint. Usually solubility stands for the dissolved amount per volume that the medium holds. A low value points to little dissolved substance.

Molecules are shown by their SMILES. Converted amounts (≈) assume the structure as drawn.

Sequence of Serine/threonine-protein kinase PLK1 (P53350 whole entry): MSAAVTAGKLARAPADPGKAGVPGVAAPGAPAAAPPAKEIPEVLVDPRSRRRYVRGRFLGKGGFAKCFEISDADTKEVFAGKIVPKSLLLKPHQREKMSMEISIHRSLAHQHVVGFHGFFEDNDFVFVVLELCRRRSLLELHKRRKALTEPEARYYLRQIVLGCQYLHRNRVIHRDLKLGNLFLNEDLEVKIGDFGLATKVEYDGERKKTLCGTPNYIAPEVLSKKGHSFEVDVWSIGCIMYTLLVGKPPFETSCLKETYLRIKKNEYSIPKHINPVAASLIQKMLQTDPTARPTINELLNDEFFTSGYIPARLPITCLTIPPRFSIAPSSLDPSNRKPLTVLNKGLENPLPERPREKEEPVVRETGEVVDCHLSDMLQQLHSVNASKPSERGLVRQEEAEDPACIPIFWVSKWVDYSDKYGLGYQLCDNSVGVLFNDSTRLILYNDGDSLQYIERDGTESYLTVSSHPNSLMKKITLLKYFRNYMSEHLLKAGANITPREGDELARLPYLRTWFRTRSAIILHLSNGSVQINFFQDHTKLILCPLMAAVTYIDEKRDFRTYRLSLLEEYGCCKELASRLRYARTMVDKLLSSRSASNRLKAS
Sequence of Mitogen-activated protein kinase 14 (Q16539 whole entry): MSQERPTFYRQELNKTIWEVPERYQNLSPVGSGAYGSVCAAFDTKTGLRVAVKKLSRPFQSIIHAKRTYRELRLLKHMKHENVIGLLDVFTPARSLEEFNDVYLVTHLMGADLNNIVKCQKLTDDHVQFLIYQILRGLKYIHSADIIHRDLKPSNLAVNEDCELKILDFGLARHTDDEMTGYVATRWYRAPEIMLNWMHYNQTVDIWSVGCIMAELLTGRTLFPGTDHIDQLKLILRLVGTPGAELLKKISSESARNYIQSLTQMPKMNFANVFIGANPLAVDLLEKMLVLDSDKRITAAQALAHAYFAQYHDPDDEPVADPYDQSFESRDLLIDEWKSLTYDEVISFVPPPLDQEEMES
Sequence of Cytochrome P450 2D6 (P10635 whole entry): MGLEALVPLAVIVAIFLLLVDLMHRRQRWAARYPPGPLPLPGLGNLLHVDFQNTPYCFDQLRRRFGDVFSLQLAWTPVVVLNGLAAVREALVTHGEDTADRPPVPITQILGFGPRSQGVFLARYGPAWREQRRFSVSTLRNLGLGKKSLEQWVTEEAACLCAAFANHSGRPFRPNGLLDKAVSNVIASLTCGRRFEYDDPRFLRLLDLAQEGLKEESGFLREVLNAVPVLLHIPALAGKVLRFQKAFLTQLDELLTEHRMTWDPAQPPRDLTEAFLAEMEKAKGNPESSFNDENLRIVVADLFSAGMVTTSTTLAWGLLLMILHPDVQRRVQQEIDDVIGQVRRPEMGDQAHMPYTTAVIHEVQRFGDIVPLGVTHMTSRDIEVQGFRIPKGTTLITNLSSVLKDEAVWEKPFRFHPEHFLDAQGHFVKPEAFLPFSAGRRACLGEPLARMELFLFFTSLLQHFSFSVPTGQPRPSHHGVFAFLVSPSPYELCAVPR
Sequence of Mitogen-activated protein kinase 11 (Q15759 whole entry): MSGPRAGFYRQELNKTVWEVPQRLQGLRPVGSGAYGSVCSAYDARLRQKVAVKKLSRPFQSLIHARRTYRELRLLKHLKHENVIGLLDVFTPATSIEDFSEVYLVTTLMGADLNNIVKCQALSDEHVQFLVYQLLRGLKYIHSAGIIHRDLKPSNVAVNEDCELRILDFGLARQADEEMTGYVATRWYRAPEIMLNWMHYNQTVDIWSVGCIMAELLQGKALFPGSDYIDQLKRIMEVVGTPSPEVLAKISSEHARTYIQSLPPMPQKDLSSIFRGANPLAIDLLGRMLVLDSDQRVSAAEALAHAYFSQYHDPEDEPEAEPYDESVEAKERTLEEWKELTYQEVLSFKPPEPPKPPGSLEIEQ
Sequence of Cytochrome P450 3A4 (P08684 whole entry): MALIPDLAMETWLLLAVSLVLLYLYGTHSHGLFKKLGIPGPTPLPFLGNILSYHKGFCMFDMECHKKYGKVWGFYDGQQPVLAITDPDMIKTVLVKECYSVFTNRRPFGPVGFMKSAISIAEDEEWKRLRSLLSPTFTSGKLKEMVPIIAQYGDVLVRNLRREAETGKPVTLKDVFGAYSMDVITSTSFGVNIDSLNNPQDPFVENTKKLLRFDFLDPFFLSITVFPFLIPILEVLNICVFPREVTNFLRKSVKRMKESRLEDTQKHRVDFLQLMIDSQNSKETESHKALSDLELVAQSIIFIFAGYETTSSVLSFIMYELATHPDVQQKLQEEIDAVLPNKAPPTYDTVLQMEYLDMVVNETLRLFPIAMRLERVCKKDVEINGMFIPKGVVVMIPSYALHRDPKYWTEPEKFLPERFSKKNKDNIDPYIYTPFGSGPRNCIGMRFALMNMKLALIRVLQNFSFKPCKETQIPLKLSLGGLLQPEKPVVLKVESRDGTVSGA
Sequence of Epidermal growth factor receptor (P00533 whole entry): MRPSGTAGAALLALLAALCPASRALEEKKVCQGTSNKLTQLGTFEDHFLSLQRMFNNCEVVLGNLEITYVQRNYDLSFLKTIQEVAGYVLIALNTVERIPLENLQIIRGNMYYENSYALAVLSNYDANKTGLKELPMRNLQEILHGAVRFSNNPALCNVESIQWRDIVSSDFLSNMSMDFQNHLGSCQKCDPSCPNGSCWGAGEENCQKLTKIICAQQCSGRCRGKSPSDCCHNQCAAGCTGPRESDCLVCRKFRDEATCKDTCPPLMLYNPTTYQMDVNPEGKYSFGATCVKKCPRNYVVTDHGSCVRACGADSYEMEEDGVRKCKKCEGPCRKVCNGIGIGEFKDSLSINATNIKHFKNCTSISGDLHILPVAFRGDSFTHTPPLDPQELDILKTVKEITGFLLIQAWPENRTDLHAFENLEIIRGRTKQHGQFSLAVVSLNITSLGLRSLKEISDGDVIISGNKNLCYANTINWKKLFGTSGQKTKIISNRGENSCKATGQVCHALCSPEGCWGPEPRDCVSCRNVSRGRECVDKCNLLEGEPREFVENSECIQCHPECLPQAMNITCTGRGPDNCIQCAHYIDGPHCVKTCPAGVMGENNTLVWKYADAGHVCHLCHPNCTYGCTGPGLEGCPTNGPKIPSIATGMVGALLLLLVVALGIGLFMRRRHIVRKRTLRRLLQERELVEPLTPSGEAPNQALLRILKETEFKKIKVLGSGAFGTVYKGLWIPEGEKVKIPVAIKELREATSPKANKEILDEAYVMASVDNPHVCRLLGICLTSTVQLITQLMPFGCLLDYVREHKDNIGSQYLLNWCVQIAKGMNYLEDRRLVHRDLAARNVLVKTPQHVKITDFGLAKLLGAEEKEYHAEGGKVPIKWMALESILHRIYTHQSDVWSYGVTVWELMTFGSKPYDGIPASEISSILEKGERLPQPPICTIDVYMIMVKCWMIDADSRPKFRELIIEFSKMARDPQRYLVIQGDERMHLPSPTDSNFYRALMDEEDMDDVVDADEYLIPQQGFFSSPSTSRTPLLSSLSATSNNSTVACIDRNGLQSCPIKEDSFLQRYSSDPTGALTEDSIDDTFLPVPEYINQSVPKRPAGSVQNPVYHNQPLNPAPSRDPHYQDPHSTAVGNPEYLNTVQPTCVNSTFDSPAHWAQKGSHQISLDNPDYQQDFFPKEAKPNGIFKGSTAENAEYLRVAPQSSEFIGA
Sequence of Cytochrome P450 2C9 (P11712 whole entry): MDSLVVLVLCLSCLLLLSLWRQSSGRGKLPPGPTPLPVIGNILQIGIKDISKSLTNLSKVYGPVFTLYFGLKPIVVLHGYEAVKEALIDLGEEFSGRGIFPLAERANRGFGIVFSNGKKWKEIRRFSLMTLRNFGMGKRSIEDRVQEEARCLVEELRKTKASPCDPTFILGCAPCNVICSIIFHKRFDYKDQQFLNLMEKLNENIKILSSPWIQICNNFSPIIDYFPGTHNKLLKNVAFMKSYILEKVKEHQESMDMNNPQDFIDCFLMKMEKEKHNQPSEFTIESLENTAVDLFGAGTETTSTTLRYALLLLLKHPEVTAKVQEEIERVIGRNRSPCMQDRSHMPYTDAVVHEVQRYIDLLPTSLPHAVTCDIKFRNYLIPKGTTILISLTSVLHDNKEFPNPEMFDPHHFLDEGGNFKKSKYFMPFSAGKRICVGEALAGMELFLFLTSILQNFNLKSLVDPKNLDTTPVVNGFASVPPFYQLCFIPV
Sequence of Mitogen-activated protein kinase 10 (P53779 whole entry): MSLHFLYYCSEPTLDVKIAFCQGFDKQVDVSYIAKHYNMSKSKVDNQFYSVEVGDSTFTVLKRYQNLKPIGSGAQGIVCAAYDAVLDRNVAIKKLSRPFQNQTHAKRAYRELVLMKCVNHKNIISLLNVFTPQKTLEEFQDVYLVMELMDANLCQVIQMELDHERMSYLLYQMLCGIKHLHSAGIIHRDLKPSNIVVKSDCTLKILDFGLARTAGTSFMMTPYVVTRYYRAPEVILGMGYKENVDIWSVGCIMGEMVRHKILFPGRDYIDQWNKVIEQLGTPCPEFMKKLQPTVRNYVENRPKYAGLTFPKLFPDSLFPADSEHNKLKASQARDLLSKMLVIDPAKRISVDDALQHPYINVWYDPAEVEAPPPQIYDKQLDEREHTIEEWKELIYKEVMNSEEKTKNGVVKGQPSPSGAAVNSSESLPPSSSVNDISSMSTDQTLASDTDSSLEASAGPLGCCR

For the molecule `COc1cc2ncn(-c3cc(OCc4ccc(S(C)(=O)=O)cc4)c(C#N)s3)c2cc1OC`, the IC50 is 631 nM in series [1] and 5010 nM in series [2].

For the molecule `COc1cc2ncn(-c3cc(OCCN4CCOCC4)c(C#N)s3)c2cc1OC`, in series [2], the half-maximal inhibitory concentration (IC50) is 1580 nM.

Take `COc1cc2ncn(-c3cc(OCc4ccc(S(C)(=O)=O)cc4)c(C(N)=O)s3)c2cc1OC`: the IC50 in series [1] was 126 nM.

`COc1cc2ncn(-c3cc(O)c(C#N)s3)c2cc1OC`: the IC50 in series [2] is 2510 nM.

Take `COc1cc2ncn(-c3cc(OCC4CCCO4)c(C(N)=O)s3)c2cc1OC` (configuration not stated): inhibition in [1] was half-maximal at 251 nM (IC50).

`COc1cc2c(cc1OCCCO)ncn2-c1cc(OCc2ccccc2C(F)(F)F)c(C#N)s1`: in series [2], the IC50 is 25.1 nM.

As to `COc1cc2ncn(-c3cc(O[C@H](C)c4ccccc4C(F)(F)F)c(C#N)s3)c2cc1OC`, in series [2], the IC50 was 3980 nM.

Turning to `N#Cc1sc(-n2cnc3ccccc32)cc1OCc1ccccc1`, in series [2], the IC50 was 1000 nM.

Turning to `COc1cc2ncn(-c3cc(OCc4ccccc4)c(C(=O)O)s3)c2cc1OC`, the IC50 was 631 nM in [1] and greater than 15800 nM in [2].

For the molecule `COc1cc2c(cc1OCCN1CCOCC1)ncn2-c1cc(OCc2ccccc2C(F)(F)F)c(C#N)s1`, the half-inhibitory concentration (IC50) in series [2] was 50.1 nM.

As to `COc1cc2ncn(-c3cc(OCCN4CCCCC4)c(C#N)s3)c2cc1OC`, the IC50 in series [2] is 5010 nM.

Take `COc1cc2ncn(-c3cc(OCc4ccccc4C(F)(F)F)c(C#N)s3)c2cc1OC`: the IC50 in [2] was 251 nM.

For the molecule `COc1cc2ncn(-c3cc(OCc4ccc(C(N)=O)cc4)c(C#N)s3)c2cc1OC`, the half-maximal inhibitory concentration (IC50) in series [2] was 12600 nM.

Turning to `COc1cc2ncn(-c3cc(OCC4CC4)c(C#N)s3)c2cc1OC`, the IC50 in series [2] is 3160 nM.

Consider `COc1cc2ncn(-c3cc(OCC4CCCO4)c(C#N)s3)c2cc1OC` (configuration not stated), for which, in series [2], the IC50 was 794 nM.

For the molecule `COc1cc2ncn(-c3cc(O[C@H](C)c4ccccc4Cl)c(C(N)=O)s3)c2cc1OC` [GSK-237701A], the IC50 in series [2] is 20000 nM.

As for `COc1cc2ncn(-c3cc(OCc4ccccc4S(C)(=O)=O)c(C#N)s3)c2cc1OC` [GSK-319347A], the IC50 against Cytochrome P450 1A2 is greater than 50100 nM; against Cytochrome P450 2D6, greater than 50100 nM; on Cytochrome P450 3A4 it was greater than 50100 nM; in series [3], greater than 15800 nM; in [1], 794 nM; in series [6] it was greater than 15800 nM. The IC50 on TGF-beta receptor type-1 was greater than 5010 nM; in series [2], 39.8 nM; in [7] it was greater than 10000 nM; in series [8], greater than 10000 nM; on Cytochrome P450 2C9, greater than 50100 nM; in [9], greater than 15800 nM. Besides, the Log IC50 in series [4] is greater than -4.8. Moreover, in series [5], the solubility was 60 µM (≈ 28.2 µg/mL).
